This is an account of results in patent US20190091227A1, “METHODS FOR TREATING ER+, HER2-, HRG+ BREAST CANCER USING COMBINATION THERAPIES COMPRISING AN ANTI-ERBB3 ANTIBODY” (Merrimack Pharmaceuticals, Inc., priority 2016, published 2019).

Where two headings read alike, the source gives them in different places.

For data set [1] the following is noted: cited from earlier work.
The next data set deals with MCF-7Ca xenograft tumors. Kind of data set: MCF-7Ca xenograft model of post-menopausal ER+ breast cancer. Type of data set: in vivo, mice. The procedure:
A model of post-menopausal ER+ breast cancer was used to determine the effect of blocking HRG-mediated ERB3 signaling and/or estrogen-mediated ER activation on tumor growth (FIG. 16). […] Changes in mean tumor volume (±SEM) were determined weekly by caliper measurement.

In data set [2] the test system is MCF7 cells. Kind of data set: Proliferation assay (Cell Titer-Glo), MCF7. Type of data set: cell-based, human. As to conditions: for proliferation: MCF7, single agent CDK4/6 inhibitor over a dose range. The procedure:
(§1) Cells were seeded in duplicate or triplicate at 1500 to 5000 cells per well in 96 well plates, Opaque-walled 96-well plates with clear bottom: 96-well, Black/Clear, Flat bottom with lid, FALCON, 353219 in reduced serum conditions at either 3% v/v FBS or 1% v/v FBS. The day after plating recombinant HRGβ1 was added to yield a final concentration of 10 nM. Control wells received media without HRGβ1. Plates were then incubated for the indicated time period of 4 to 6 days at 37° C. in a humid atmosphere with 95% air, 5% CO2.
(§2) The day after plating recombinant HRGβ1 was added to yield a final concentration of 10 nM. Control wells received media without HRGβ1. […] Where indicated CDK inhibitors were added at 10 μM and dilutions were performed to generate a dose-response curve with 2 controls wells per row. Plates were then incubated for the indicated time period of 4 to 6 days at 37° C. in a humid atmosphere with 95% air, 5% CO2. Growth inhibition was calculated as a function of the relative inhibition or proliferation of cells treated with either growth factor or antagonists to cells treated with diluent only, over the same time period.
(§3) The day after plating recombinant HRGβ1 was added to yield a final concentration of 10 nM. Control wells received media without HRGβ1. […] Where indicated CDK inhibitors were added at 10 μM and dilutions were performed to generate a dose-response curve with 2 controls wells per row. Plates were then incubated for the indicated time period of 4 to 6 days at 37° C. in a humid atmosphere with 95% air, 5% CO2.
(§4) To measure proliferation, Cell Titer-Glo (CTG) assays were performed as per manufacturer's instructions. Specifically, reagent-1 and reagent-2 were equilibrated to room temperature at which point reagent-1 was added to reagent-2 and mixed by vortex. Test plates containing cells were equilibrated to room temperature for 30 minutes at which point an equal volume of CTG reagent was added to each well of the test plate, typically 100 μl to give a final volume of 200 μl per well. Each plate was then sealed with a foil plate sealer and mixed on an orbital shaker for 10 minutes to lyse cells and release cellular ATP. Following mixing plates were incubated at room temperature for 15 minutes to stabilize the luminescent signal. Data was collected by measuring relative luminescence on a Synergy H1 plate reader using the luminescence program. Growth was calculated and expressed as a relative value to the unstimulated control wells on each individual plate. Growth inhibition was calculated as a function of the relative inhibition of cells treated with antagonists to the growth of cells treated with diluent only, over the same time period. Data was then plotted using GraphPad Prism software.
Background: ATP-based viability assays read luminescence as a measure of living cells.

Another data set deals with RB. The experiment in a line: RB phosphorylation (S807/811, S780) by Western blotting in MCF7 cells. The data set is classed as cell-based, human. As to conditions: for RB phosphorylation / activation: MCF7, 20-24 hours, HRG 10 nM, fulvestrant 50 nM, palbociclib, abemaciclib 40 nM. The procedure:
MCF7 cells were cultured as described above. […] Cellular lysates were prepared by lysis in MPER lysis buffer with the addition of protease and phosphatase inhibitors for 30 mins on ice. Cellular debris were removed by centrifugation at 10,000 rpm. Proteins were analyzed by Western blotting according to standard protocols. Protein loading was estimated by blotting with a β-actin antibody (β-Actin (13E5) Rabbit mAb #4970 Cell Signal) and RB activation was measured by detection of phosphorylation of RB (pRB) at pRb (S807/811): Cat #8516 pRb (S780): Cat #8180. Control antibodies as follows total AKT: Cat #9272 pAKT: Cat #4060.
In general terms: In western blotting, separated proteins are transferred to a membrane and probed.

Another data set has as its system T47D cells. Kind of data set: Proliferation assay (Cell Titer-Glo), T47D. Type of data set: cell-based, human. The procedure:
as §1, §2, §3, §4

A further data set concerns CDK2. The experiment in a line: CDK2 activation (phospho-Thr160) by Western blotting in MCF7 cells. The data set is classed as cell-based, human. The procedure: Cellular lysates were prepared by lysis in MPER lysis buffer with the addition of protease and phosphatase inhibitors for 30 minutes on ice. Cellular debris was removed by centrifugation at 10,000 rpm. Proteins were analyzed by Western blotting according to standard protocols.

Data set [3] has as its system MCF7 cells. Kind of data set: Cell cycle / S-phase by EdU incorporation and flow cytometry in MCF7 cells. The data set is classed as cell-based, human. The procedure: FIG. 13 is a representative FACS plot of the cell cycle distribution. The gate settings and percentage for cells in G0/G1, S and G2/M phases are indicated. DNA synthesis (S-phase) was determined by quantifying cells positive for both EdU incorporation and DNA content.
On the technique in general: In flow cytometry, cells or beads pass a laser one at a time.

Data set [4] deals with MCF7 cells. Kind of data set: MCF7 orthotopic xenograft model of ER+ HER2- breast cancer. Type of data set: in vivo. The following applies: SHO mice. The procedure:
Female SHO mice (Charles River Laboratories) aged 8-10 weeks were implanted with 17-beta-estradiol pellets (0.72 mg/pellet) and 2 days later, injected with 100 μl of 5×10^6 MCF7 cells suspended in 50% DPBS/50% matrigel into the abdominal mammary fat pad. Tumor growth was monitored twice a week and tumor volumes were calculated following external caliper measurement according to the formula (tumor size=π/6×[length×width^2]). Once the average measured tumor volume had reached approximately 200 mm^3, mice were randomized into groups and treatment was administered. Overall, the average starting tumor volume per group was equivalent across all groups. Fulvestrant was dosed at 500 μg per mouse once per week via subcutaneous delivery. Palbociclib was dosed at 25 mg/kg, orally every day for 5 days, Monday through Friday.

The next data set relates to ZR75-1 cells. Kind of data set: Proliferation assay (Cell Titer-Glo), ZR75-1. The data set is classed as cell-based, human. As to conditions: ZR75-1, CDK4/6 inhibitor plus HRG. The procedure:
as §2
The day after plating recombinant HRGβ1 was added to yield a final concentration of 10 nM. Control wells received media without HRGβ1. […]
To measure proliferation, Cell Titer-Glo (CTG) assays were performed as per manufacturer's instructions. […] Data was collected by measuring relative luminescence on a Synergy H1 plate reader using the luminescence program. Growth was calculated and expressed as a relative value to the unstimulated control wells on each individual plate. Growth inhibition was calculated as a function of the relative inhibition of cells treated with antagonists to the growth of cells treated with diluent only, over the same time period. […]

For `N#Cc1ccc(C(c2ccc(C#N)cc2)n2cncn2)cc1` [letrozole, 4,4′-(1H-1,2,4-Triazol-1-ylmethylene)dibenzonitrile], the solubility entry in [1] (in dichloromethane) was “freely soluble”; in data set [1] (in ethanol) it was “slightly soluble”; in [1] (in water), “practically insoluble”. Also, the tumor response result with MCF-7Ca xenograft tumors (letrozole 10 μg/mouse/day x 5 days/week SQ) was “initially responded”. Also, the “start of development of resistance” value in the data set on MCF-7Ca xenograft tumors (letrozole monotherapy, time of treatment) is recorded as 7-8 weeks.
`CC(C)(C#N)c1cc(Cn2cncn2)cc(C(C)(C)C#N)c1` [anastrozole, a,a,a′,a′-Tetramethyl-5-(1H-1,2,4-triazol-1-ylmethyl)-1,3-benzenediacetonitrile]: the solubility entry in [1] (in acetone) is on record as “freely soluble”; in data set [1] (in acetonitrile), “very soluble”; in data set [1] (in ethanol) it was “freely soluble”; in [1] (in methanol) it was “freely soluble”; in data set [1] (in tetrahydrofuran) it was “freely soluble”.
For the molecule `CN(C)C(=O)c1cc2cnc(Nc3ccc(N4CCNCC4)cn3)nc2n1C1CCCC1` [ribociclib, 7-cyclopentyl-N,N-dimethyl-2-((5-(piperazin-1-yl)pyridin-2-yl)amino)-7H-pyrrolo[2,3-d]pyrimidine-6-carboxamide, reference compound], in the data set on MCF7 cells [2] (6 days), the proliferation result is “inhibited proliferation in a dose dependent manner”.
Consider `CCN1CCN(Cc2ccc(Nc3ncc(F)c(-c4cc(F)c5nc(C)n(C(C)C)c5c4)n3)nc2)CC1` [abemaciclib, 2-pyrimidinamine, N-(5-((4-ethyl-1-piperazinyl)methyl)-2-pyridinyl)-5-fluoro-4-(4-fluoro-2-methyl-1-(1-methylethyl)-1H-benzimidazol-6-yl), reference compound], for which the proliferation entry with MCF7 cells [2] (6 days) is given as “inhibited proliferation in a dose dependent manner”. The “RB phosphorylation / activation” value in the data set with RB is on record as “decrease RB activation”.
For `C[C@]12CC[C@@H]3c4ccc(O)cc4C[C@@H](CCCCCCCCC[S+]([O-])CCCC(F)(F)C(F)(F)F)[C@H]3[C@@H]1CC[C@@H]2O` (stereo partly drawn) [fulvestrant, 7-alpha-[9-(4,4,5,5,5-pentafluoropentylsulphinyl)nonyl]estra-1,3,5-(10)-triene-3,17beta-diol, reference compound], the “degree of inhibition of proliferation” value in the data set with MCF7 cells [2] (MCF7, CDK4/6 inhibitor plus fulvestrant (50 nM)) is “greater than the activity of the CDK4/6 inhibitor alone”. Moreover, the “fulvestrant activity on proliferation” value with MCF7 cells [2] (MCF7, HRG present in addition to estradiol) is recorded as “significantly decreased”; in the data set on T47D cells (HRG present in addition to estradiol) it was “significantly decreased”. Besides, the “inhibition of estradiol induced proliferation” value was “effective at inhibiting estradiol induced proliferation” in the data set with MCF7 cells [2] (MCF7, fulvestrant 100 nM, 6 days) and “effective at inhibiting estradiol induced proliferation” in the data set with T47D cells (fulvestrant 100 nM, 6 days). Also, in the data set with RB, the “RB phosphorylation / activation” value is reported as “inhibits RB activation”. Also, in the data set on CDK2 (MCF7, agent alone, 20-24 hours, HRG 10 nM, fulvestrant, palbociclib, abemaciclib 100 nM), the CDK2 activation entry is listed as “inhibited CDK2 activation”. In addition, the “S-phase cell cycle progression” value with MCF7 cells [3] (MCF7, single agents in the absence of HRG) was “efficacious at inhibiting S-phase cell cycle progression”.

B1: seribantumab: human monoclonal anti-ErbB3 IgG2; heavy and light chains SEQ ID NO: 7 and 8 (antibody)
heavy: EVQLLESGGGLVQPGGSLRLSCAASGFTFSHYVMAWVRQAPGKGLEWVSSISSSGGWTLYADSVKGRFTISRDNSKNTLYLQMNSLRAEDTAVYYCTRGLKMATIFDYWGQGTLVTVSSASTKGPSVFPLAPCSRSTSESTAALGCLVKDYFPEPVTVSWNSGALTSGVHTFPAVLQSSGLYSLSSVVTVPSSNFGTQTYTCNVDHKPSNTKVDKTVERKCCVECPPCPAPPVAGPSVFLFPPKPKDTLMISRTPEVTCVVVDVSHEDPEVQFNWYVDGVEVHNAKTKPREEQFNSTFRVVSVLTVVHQDWLNGKEYKCKVSNKGLPAPIEKTISKTKGQPREPQVYTLPPSREEMTKNQVSLTCLVKGFYPSDIAVEWESNGQPENNYKTTPPMLDSDGSFFLYSKLTVDKSRWQQGNVFSCSVMHEALHNHYTQKSLSLSPGK
light: QSALTQPASVSGSPGQSITISCTGTSSDVGSYNVVSWYQQHPGKAPKLIIYEVSQRPSGVSNRFSGSKSGNTASLTISGLQTEDEADYYCCSYAGSSIFVIFGGGTKVTVLGQPKAAPSVTLFPPSSEELQANKATLVCLVSDFYPGAVTVAWKADGSPVKVGVETTKPSKQSNNKYAASSYLSLTPEQWKSHRSYSCRVTHEGSTVEKTVAPAECS
With B1, the “growth inhibition, addition of seribantumab to the combination of palbociclib and fulvestrant” value in the data set with MCF7 cells [4] was “increases the growth inhibition”. Further, the “antitumor efficacy, addition of seribantumab to fulvestrant” value with MCF7 cells [4] (seribantumab 600 μg twice per week IP, fulvestrant 500 μg once per week SC) is “increased the antitumor efficacy”. Besides, the “antitumor efficacy, addition of seribantumab to palbociclib” value with MCF7 cells [4] (seribantumab 600 μg twice per week IP, palbociclib 25 mg/kg orally) is “increased the antitumor efficacy”. The “effect of adding seribantumab on CDK4/6 inhibitor activity” value in the data set on ZR75-1 cells is given as “restored sensitivity”; in the data set on MCF7 cells [2] (MCF7, CDK4/6 inhibitor plus HRG 10 nM), “restored CDK inhibitory activity”. The “effect of adding seribantumab on the CDK4/6 inhibitor-fulvestrant combination” value in the data set with MCF7 cells [2] (MCF7, with HRG) is “restored sensitivity”. In addition, the “effect of adding seribantumab on proliferation” value with MCF7 cells [2] (MCF7 treated with fulvestrant, estradiol and HRG) is listed as “restoration of the activity of fulvestrant”. Besides, the “effect of seribantumab on activity of fulvestrant, palbociclib and abemaciclib on RB” value with RB (MCF7, seribantumab 1 uM, with HRG, alone or in combination) is listed as “restored the activity”. The resistance to letrozole entry in the data set with MCF-7Ca xenograft tumors (co-treated with letrozole and seribantumab) is given as “substantially delayed”. In addition, in the data set with MCF-7Ca xenograft tumors (co-treated with letrozole and seribantumab (750 μg/mouse IP)), the tumor growth entry is listed as “tumor growth was inhibited”. For the same molecule, the “tumor growth of letrozole-resistant tumors” value in the data set on MCF-7Ca xenograft tumors (re-randomized at week 14, letrozole and seribantumab compared to letrozole alone) was “significantly decreased tumor growth”. Also, the “effect on HRG-induced CDK2 activation” value in the data set on CDK2 (MCF7, in the presence of fulvestrant or CDK4/6 inhibitors palbociclib and abemaciclib) was “blocked HRG mediated activation of CDK2”; with CDK2 (MCF7, seribantumab 1 uM, HRG 10 nM), “can block the activating effect of HRG on CDK2 activation”. The “effect of seribantumab on cell cycle inhibitory activity of fulvestrant or palbociclib” value in the data set on MCF7 cells [3] (MCF7, in the presence of HRG) was “restores this activity”. The “effect of seribantumab on cell cycle inhibitory activity of the palbociclib-fulvestrant combination” value with MCF7 cells [3] (MCF7, in the presence of HRG) is “restored this activity”.
